Data set [1] deals with T1, human α2b adrenergic receptor (Homo sapiens, UniProt P18089).
T1 construct: expressed in transfected cells; host or cells: stably transfected cells, vector pcEXV-3; deposited line L-NGC-α2B (ATCC CRL-10275)
T1 sequence (P18089 1-450): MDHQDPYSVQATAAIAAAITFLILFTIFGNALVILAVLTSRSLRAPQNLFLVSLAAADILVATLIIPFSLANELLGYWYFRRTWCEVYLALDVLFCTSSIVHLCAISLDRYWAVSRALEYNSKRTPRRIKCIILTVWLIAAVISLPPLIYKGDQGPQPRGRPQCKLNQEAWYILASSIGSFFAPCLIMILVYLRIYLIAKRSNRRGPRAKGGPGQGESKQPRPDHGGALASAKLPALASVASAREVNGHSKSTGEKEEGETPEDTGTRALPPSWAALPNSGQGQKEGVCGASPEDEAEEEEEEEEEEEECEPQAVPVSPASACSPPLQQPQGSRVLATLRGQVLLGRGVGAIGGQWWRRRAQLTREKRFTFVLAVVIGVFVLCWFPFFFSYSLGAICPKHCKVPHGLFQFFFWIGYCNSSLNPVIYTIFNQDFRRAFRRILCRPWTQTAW
The data set is described as follows: α2 agonist activity: inhibition of forskolin-stimulated cAMP synthesis, α2b cells. In kind it is cell-based. Here is the method:
(§1) Binding and functional assays were performed using stably transfected cells expressing human α adrenergic receptors. Equilibrium competition binding assays were performed with membrane preparations from cultured LM(tk−) cells stably transfected with the cloned human adrenoceptor subtypes except for a21, which was expressed In Y-1 cells, using [^3H]prazosin for α1 receptors and [^3H]rauwolscine for […].
(§2) These cell lines were prepared by transfecting cloned cDNA or cloned genomic DNA or constructs containing both genomic DNA and cDNA encoding the human a adrenergic receptors as described below.
(§3) The agonist activity (expressed as pEC50) was measured as a function of the ability to inhibit the forskolin-stimulated synthesis of cyclic adenosine monophosphate (cAMP). The stably transfected cells were incubated in Ham's F10 with 5 mM theophylline, 10 mM HEPES, 17 mM pargyline, and/or appropriate concentrations of forskolin for 20 min. at 37° C. in 5% CO2. The tested compounds were then added to a final concentration of 0.001 nM to 1 mM and incubated for an additional 15 min. at 37° C. in 5% CO2. The medium was aspirated and the reaction was stopped by the addition of 100 mM HCl. […] The plates were stored at 4° C. for 15 min. and assayed to determine the linear concentration of cAMP. The appropriate dilution was interpolated from the standard curve of cold cAMP. The assessment of cAMP formation was determined by radioimmunoassay (cAMP radioimmunoassay kit; Advanced magnetics, Cambridge, Mass.). Radioactivity was quantified using a Packard COBRA Auto Gamma counter equipped with data reduction software.

The target in data set [2] is T2, human α2a adrenergic receptor (Homo sapiens, UniProt P08913).
T2 construct: expressed in transfected cells; host or cells: LM(tk−) cells (L-α2A, ATCC CRL-11180), vector pCEXV-3
T2 sequence (P08913 1-465): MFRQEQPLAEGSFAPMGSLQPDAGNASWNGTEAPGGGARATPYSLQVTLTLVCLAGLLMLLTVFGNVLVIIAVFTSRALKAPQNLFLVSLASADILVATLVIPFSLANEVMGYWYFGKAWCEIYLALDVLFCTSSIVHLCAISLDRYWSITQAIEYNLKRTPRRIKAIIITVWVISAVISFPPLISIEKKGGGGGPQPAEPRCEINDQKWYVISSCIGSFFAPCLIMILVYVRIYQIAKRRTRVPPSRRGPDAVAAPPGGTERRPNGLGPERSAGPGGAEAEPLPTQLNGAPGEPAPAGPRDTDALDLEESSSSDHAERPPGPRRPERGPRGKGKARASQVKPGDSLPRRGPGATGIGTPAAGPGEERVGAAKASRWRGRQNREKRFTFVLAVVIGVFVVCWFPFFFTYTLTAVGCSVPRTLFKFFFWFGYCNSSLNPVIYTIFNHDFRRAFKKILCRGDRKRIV
The data set is described as follows: α2 agonist activity: inhibition of forskolin-stimulated cAMP synthesis, α2a cells. The class given is cell-based. The settings on record: for α2a IA (Intrinsic Activity): inhibition of forskolin-stimulated cAMP, cloned human α2a. Here is the method:
as §1, §2, §3

Data set [3] addresses T3, human α2c adrenergic receptor (Homo sapiens, UniProt P18825).
T3 construct: The entire coding region of α2c (1383 bp), including 2 bp of 5′ UT and 400 bp of 3′ UT; expressed in transfected cells; host or cells: LM(tk−) cells (L-α2c, ATCC CRL-11181), vector pCEXV-3
T3 sequence (P18825 1-462): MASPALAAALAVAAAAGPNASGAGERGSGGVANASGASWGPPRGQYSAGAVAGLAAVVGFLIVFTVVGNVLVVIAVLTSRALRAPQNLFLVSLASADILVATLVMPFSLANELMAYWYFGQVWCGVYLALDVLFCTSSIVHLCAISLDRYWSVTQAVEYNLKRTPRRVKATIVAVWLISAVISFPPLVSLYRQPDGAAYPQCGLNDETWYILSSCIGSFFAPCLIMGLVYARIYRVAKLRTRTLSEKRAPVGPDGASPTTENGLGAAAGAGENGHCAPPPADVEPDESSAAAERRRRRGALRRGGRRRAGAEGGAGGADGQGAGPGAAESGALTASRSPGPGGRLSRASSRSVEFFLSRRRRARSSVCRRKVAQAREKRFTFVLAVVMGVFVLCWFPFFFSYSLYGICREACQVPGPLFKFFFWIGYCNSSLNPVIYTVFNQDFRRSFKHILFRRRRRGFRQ
Kind of data set: Equilibrium competition binding, [3H]rauwolscine, cloned human α2c. Here is the method:
as §1, §2
The insert housing this coding region was a 1.8 kb Ncol/EcoR1 human spleen genomic fragment which was end-blunted by either T4 polymerase or Klenow fragment of DNA polymerase. Stable cell lines were selected as described above.
(§4) The stable cell lines described above were scraped from culture flasks into 5 mL of 5 mM Tris-HCl, […], pH 7.5, and lysed by sonication. The cell lysates were centrifuged at 1,000 rpm for 5 min. at 4° C., and the supernatant was centrifuged at 30,000×g for 20 min. at 4° C. The pellet was suspended in 50 mM Tris-HCl, 1 mM MgCl2, and 0.1% ascorbic acid at pH 7.5. Binding of the α2 antagonist [^3H]rauwolscine (0.5 nM) or the α1 antagonist [^3H]prazosin (0.5 nM) to membrane preparations of LM(tk−) cells was done in a final volume of 0.25 mL and incubated at 37° C. for 20 min. Nonspecific binding was determined in the presence of […]. The reaction was stopped by filtration through GF/B filters using a cell harvester.

Data set [4] concerns the target T3, human α2c adrenergic receptor. The data set is described as follows: α2 agonist activity: inhibition of forskolin-stimulated cAMP synthesis, α2c cells. In kind it is cell-based. Here is the method: as §1, §2, §3
The target of data set [5] is T2, human α2a adrenergic receptor. Kind of data set: Equilibrium competition binding, [3H]rauwolscine, cloned human α2a. Here is the method:
as §1, §2
The insert housing this coding region was a 2.5 kb Kpnl/HindIII human placenta genomic fragment which was end-blunted by either T4 polymerase or Klenow fragment of DNA polymerase. Stable cell lines were obtained by to-transfection with the plasmid pGCcos3neo (plasmid containing the α2a receptor gene) and the plasmid pGCcos3neo (plasmid containing the aminoglycoside transferase gene) into LM(tk−), CHO, and NIH3T3 cells, using calcium phosphate technique. The cells were grown in a controlled environment (37° C., 5% CO2) as monolayers in Dulbecco's modified Eagle's Medium (GIBCO, Grand Island, N.Y.) containing 25 mM glucose and supplemented with 10% bovine calf serum, 100 units/mL penicillin g, and […] streptomycin sulfate.
as §4

Data set [6] addresses T1, human α2b adrenergic receptor. Kind of data set: Equilibrium competition binding, [3H]rauwolscine, cloned human α2b. Here is the method:
as §1, §2
Stable cell lines were selected as described above.
as §4

The mark [7] stands for this setting: inhibition of forskolin-stimulated cAMP, cloned human α2b.
[8] abbreviates: inhibition of forskolin-stimulated cAMP, cloned human α2c.
Where [9] appears, read: cloned human α2c, membrane preparations, [3H]rauwolscine, read-out: α2c pKi (converted).
The mark [10] stands for this setting: inhibition of forskolin-stimulated cAMP, cloned human α2c, read-out: α2c pEC50 (converted).

Counter-ions that a name gives are not always drawn. Like-named read-outs stand apart in the source and are kept apart here.

For `Br.Brc1cc2c(cc1NC1=NCCN1)CCC2`, the melting point (in general, the temperature of the solid-liquid transition) lay in the range of 220 to 221 °C.

In turn, `Brc1cc2c(c(Br)c1NC1=NCCN1)CCC2` registered a melting point of 163 to 164 °C.

Turning to `C1=NC(Cc2ccnc3ccccc23)CN1.O=C(O)/C=C/C(=O)O` (centres unmarked), the melting point lay in the range of 180 to 182 °C.

With `O=[N+]([O-])c1cc2c(cc1NC1=NCCN1)CCC2` (as salt: fumarate), the melting point was 213 to 214 °C (dec.).

On to `CC1CCc2ncc(NC3=NCCN3)cc2C1` (centres unmarked) (as salt: fumarate), for which the melting point was 192 to 195 °C (dec.).

With `CC1CCCc2cc(NC3=NCCN3)cnc21` (centres unmarked) (as salt: fumarate), the melting point is 155 to 160 °C (dec.).

On to `CC1(C)CCCc2cc(NC3=NCCN3)cnc21` (as salt: fumarate), for which the melting point is 185 to 186 °C (dec.).

`c1nc2c(cc1NC1=NCCN1)CCCC2` (as salt: fumarate): the melting point lay within 201 to 203 °C.

The compound `c1nc2c(cc1NC1=NCCN1)COCC2` (as salt: fumarate) came in with a melting point of 201 to 202.5 °C.

With `OC1CCCc2ccc(NC3=NCCN3)cc21` (centres unmarked) (as salt: fumarate), the melting point is 180 to 182 °C (dec.).

For the compound `CC1CCCc2ccc(NC3=NCCN3)cc21` (centres unmarked) (as salt: fumarate), the melting point was 185 to 187 °C (dec.).

Turning to `O=C1CCCc2ccc(NC3=NCCN3)cc21` (as salt: fumarate) [Example 4, 2-(1,2,3,4-Tetrahydro-1-oxo-naphth-7-yl)amino-2-imidazoline], the melting point was 198 to 201 °C (dec.).

On to `O=C1CCCc2ccc(NC3=NCCN3)c(Br)c21` (as salt: fumarate) [Example 5, 2-(8-Bromo-1,2,3,4-Tetrahydro-1-oxo-naphth-7-yl)amino-2-imidazoline], for which the melting point was 204 to 207 °C (dec.).

As for `CON=C1CCCc2ccc(NC3=NCCN3)cc21` (as salt: fumarate) [Example 8, 2-(1,2,3,4-Tetrahydro-1-methoxyimino-naphth-7-yl)amino-2-imidazoline], the melting point was 201 to 202 °C (dec.).

Regarding `CC(=O)N1CCc2cc(NC3=NCCN3)ccc21` (as salt: fumarate) [Example 9, 2-(1-Acetyl-indolin-5-yl)amino-2-imidazoline], the melting point is 200 to 203 °C (dec.).

The compound `c1nc2c(cc1NC1=NCCN1)CCC2` (as salt: fumarate) [Example 21, 2-(2,3-Cyclopentenopyrid-5-yl)amino-2-imidazoline] showed a melting point of 182 to 183.5 °C.

`c1nc2c(cc1NC1=NCCN1)CSCC2` (as salt: fumarate) [Example 25, 2-(5,6,7,8-tetrahydro-6-thia-quinolin-3-yl)amino-2-imidazoline] gave a melting point of 199.5 to 200.5 °C.

For `Cc1nc2c(c(C)c1NC1=NCCN1)CCC2` (as salt: fumarate) [Example 30, 2-(5,6-Cyclopenteno-2,4-dimethyl-pyrid-3-yl)amino-2-imidazoline], the melting point was in the range of 220 to 221 °C.

As to `c1nc2c(cc1NC1=NCCN1)CCC2` [Example 21, 2-(2,3-Cyclopentenopyrid-5-yl)amino-2-imidazoline], the values for the EC50 in data set [1], in data set [2] and in data set [4] were 1.95 µM, 0.389 µM and 0.0162 µM, respectively. The “α2b IA (Intrinsic Activity)” value in data set [1] (setting [7]) is listed as “(0.55)”. For the same compound, the “α2a IA (Intrinsic Activity)” value in data set [2] is “(0.58)”. The Ki in data set [3] was 0.457 µM; in data set [5], 0.0501 µM; in data set [6] it was 0.166 µM. Further, in data set [4] (setting [8]), the “α2c IA (Intrinsic Activity)” value is recorded as “(1.00)”.

`Brc1nc2c(c(Br)c1NC1=NCCN1)CCC2` [Example 29, 2-(2,4-Dibromo-5,6-cyclopentenopyrid-3-yl)amino-2-imidazoline]: the “α2b IA (Intrinsic Activity)” value in data set [1] (setting [7]) is “(0.40)”. Moreover, the EC50 in data set [1] (inhibition of forskolin-stimulated cAMP, cloned human α2b, read-out: α2b pEC50 (converted)) was 0.0912 µM; in data set [2] it was 0.0158 µM; in data set [4] (setting [10]) it was 0.0138 µM. Moreover, the “α2a IA (Intrinsic Activity)” value in data set [2] is reported as “(1.00)”. In addition, the Ki is 0.251 µM in data set [3] (setting [9]); 0.0148 µM in data set [5] (cloned human α2a, membrane preparations, [3H]rauwolscine, read-out: α2a pKi (converted)); 0.0513 µM in data set [6] (cloned human α2b, membrane preparations, [3H]rauwolscine, read-out: α2b pKi (converted)). In addition, the “α2c IA (Intrinsic Activity)” value in data set [4] (setting [8]) is “(1.00)”.

As to `Cc1cccc(C(C)c2cnc[nH]2)c1C` (centres unmarked) [Medetomidine, reference compound], the “α2a IA (Intrinsic Activity)” value in data set [2] was “(1.00)”. Also, the Ki in data set [3] (setting [9]) was 0.00537 µM. Further, the “α2c IA (Intrinsic Activity)” value in data set [4] (setting [8]) is given as “(1.00)”. Moreover, the EC50 in data set [4] (setting [10]) is 0.00148 µM.

With `Brc1c(NC2=NCCN2)ccc2nccnc12` [UK-14, 304, reference compound], the “α2c IA (Intrinsic Activity)” value in data set [4] (setting [8]) was “(1.00)”.
